Test results published in PubChem BioAssay (NCI).
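48-hour exposure; five concentrations; linearly interpolated endpoints. The concentration for 50% growth inhibition is given as GI50. TGI is the concentration that stops growth completely.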

Experiments:
Test in all cases: growth of human tumour cells (NCI), 48 h
[1] = system: NCI-H23 lung
[2] = system: OVCAR-3 ovarian
[3] = system: PC-3 prostate
[4] = system: LOX IMVI melanoma
[5] = system: NCI-H460 lung
[6] = system: HCT-116 colon
[7] = system: OVCAR-8 ovarian
[8] = system: HOP-92 NSCLC
[9] = system: K-562 leukemia
[10] = system: M14 melanoma
[11] = system: TK-10 renal
[12] = system: SF-295 CNS
[13] = system: HS 578T breast
[14] = system: DU-145 prostate
[15] = system: UO-31 renal
[16] = system: OVCAR-5 ovarian
[17] = system: UACC-62 melanoma
[18] = system: RPMI-8226 leukemia
[19] = system: KM12 colon
[20] = system: ACHN renal
[21] = system: A549 NSCLC
[22] = system: MDA-MB-231 breast
[23] = system: NCI/ADR-RES ovarian
[24] = system: T-47D breast
[25] = system: SW-620 colon
[26] = system: CAKI-1 renal
[27] = system: SN12C renal
[28] = system: COLO 205 colon
[29] = system: UACC-257 melanoma
[30] = system: MDA-MB-435
[31] = system: U251 CNS
[32] = system: HL-60(TB) leukemia
[33] = system: 786-0 renal
[34] = system: BT-549 breast
[35] = system: SK-OV-3 ovarian
[36] = system: SF-539 CNS
[37] = system: EKVX NSCLC
[38] = system: SF-268 CNS
[39] = system: HOP-62 NSCLC
[40] = system: MCF7 breast
[41] = system: HCT-15 colon
[42] = system: SNB-19 CNS
[43] = system: SK-MEL-5 melanoma

Compound: CCSc1nc2[nH]c(=S)[nH]c(=S)c2c(-c2ccc(OC)c(OC)c2)c1C#N
- GI50 [1]: 18.6 µM
- TGI [1]: > 50 µM
- GI50 [2]: 11 µM
- TGI [2]: 34.6 µM
- GI50 [3]: 22.6 µM
- TGI [3]: > 50 µM
- GI50 [4]: 14.5 µM
- TGI [4]: > 50 µM
- GI50 [5]: 21 µM
- TGI [5]: > 50 µM
- GI50 [6]: 18.2 µM
- TGI [6]: > 50 µM
- GI50 [7]: 18.9 µM
- TGI [7]: > 50 µM
- GI50 [8]: 19 µM
- TGI [8]: > 50 µM
- GI50 [9]: 9.68 µM
- TGI [9]: 24.3 µM
- GI50 [10]: 15.2 µM
- TGI [10]: > 50 µM
- GI50 [11]: 43.5 µM
- TGI [11]: > 50 µM
- GI50 [12]: 18.9 µM
- TGI [12]: > 50 µM
- GI50 [13]: 13.2 µM
- TGI [13]: 45.8 µM
- GI50 [14]: 21.8 µM
- TGI [14]: > 50 µM
- GI50 [15]: 11.7 µM
- TGI [15]: 36 µM
- GI50 [16]: > 50 µM
- TGI [16]: > 50 µM
- GI50 [17]: 14.3 µM
- TGI [17]: > 50 µM
- GI50 [18]: 16.8 µM
- TGI [18]: > 50 µM
- GI50 [19]: 21.9 µM
- TGI [19]: > 50 µM
- GI50 [20]: 17.2 µM
- TGI [20]: > 50 µM
- GI50 [21]: 14.8 µM
- TGI [21]: > 50 µM
- GI50 [22]: 9.75 µM
- TGI [22]: 40.3 µM
- GI50 [23]: 14.7 µM
- TGI [23]: 32.8 µM
- GI50 [24]: 23.5 µM
- TGI [24]: > 50 µM
- GI50 [25]: 26.5 µM
- TGI [25]: > 50 µM
- GI50 [26]: 17.4 µM
- TGI [26]: > 50 µM
- GI50 [27]: 16.9 µM
- TGI [27]: > 50 µM
- GI50 [28]: 14.2 µM
- TGI [28]: 45.2 µM
- GI50 [29]: 16.5 µM
- TGI [29]: 43.7 µM
- GI50 [30]: 10.5 µM
- TGI [30]: 42.5 µM
- GI50 [31]: 17.8 µM
- TGI [31]: > 50 µM
- GI50 [32]: 16.1 µM
- TGI [32]: > 50 µM
- GI50 [33]: 16.5 µM
- TGI [33]: > 50 µM
- GI50 [34]: 14.6 µM
- TGI [34]: 46.8 µM
- GI50 [35]: 21.1 µM
- TGI [35]: > 50 µM
- GI50 [36]: 14.8 µM
- TGI [36]: 35.4 µM
- GI50 [37]: 17 µM
- TGI [37]: > 50 µM
- GI50 [38]: 15.9 µM
- TGI [38]: 46.4 µM
- GI50 [39]: 19.8 µM
- TGI [39]: > 50 µM
- GI50 [40]: 22.1 µM
- TGI [40]: > 50 µM
- GI50 [41]: 16.5 µM
- TGI [41]: > 50 µM
- GI50 [42]: 21.4 µM
- TGI [42]: > 50 µM
- GI50 [43]: 6.86 µM
- TGI [43]: 21.5 µM
